Results published in PubChem BioAssay (NCI).
Several values for one entry are separate records, joined by “and”; a condition that tells them apart may be missing. Equal values may be shown once.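 Briefly, cells in 96-well plates were exposed to five compound concentrations for 48 h, and endpoints were estimated by linear interpolation. GI50 marks 50% less growth. TGI denotes the concentration required for complete inhibition of growth.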

Key:
Assay in all cases: NCI anticancer screen, dose series, 48 h
DMS 114 small cell lung = test system: DMS 114 small cell lung
UACC-257 melanoma = test system: UACC-257 melanoma
ACHN renal = test system: ACHN renal
CCRF-CEM leukemia = test system: CCRF-CEM leukemia
UO-31 renal = test system: UO-31 renal
A549 NSCLC = test system: A549 NSCLC
IGROV1 ovarian = test system: IGROV1 ovarian
HCC-2998 colon = test system: HCC-2998 colon
LOX IMVI melanoma = test system: LOX IMVI melanoma
HT29 colon = test system: HT29 colon
MOLT-4 leukemia = test system: MOLT-4 leukemia
LXFL 529 NSCLC = test system: LXFL 529 NSCLC
HOP-92 NSCLC = test system: HOP-92 NSCLC
U251 CNS = test system: U251 CNS
NCI-H226 lung = test system: NCI-H226 lung
K-562 leukemia = test system: K-562 leukemia
NCI-H522 lung = test system: NCI-H522 lung
DLD-1 colon = test system: DLD-1 colon
M14 melanoma = test system: M14 melanoma
SK-MEL-5 melanoma = test system: SK-MEL-5 melanoma
HCT-116 colon = test system: HCT-116 colon
SNB-19 CNS = test system: SNB-19 CNS
XF 498 CNS = test system: XF 498 CNS
OVCAR-8 ovarian = test system: OVCAR-8 ovarian
SK-OV-3 ovarian = test system: SK-OV-3 ovarian
CAKI-1 renal = test system: CAKI-1 renal
SNB-75 CNS = test system: SNB-75 CNS
RXF 393 renal = test system: RXF 393 renal
SN12C renal = test system: SN12C renal
HOP-18 NSCLC = test system: HOP-18 NSCLC
EKVX NSCLC = test system: EKVX NSCLC
OVCAR-4 ovarian = test system: OVCAR-4 ovarian
SF-539 CNS = test system: SF-539 CNS
SF-295 CNS = test system: SF-295 CNS
MALME-3M melanoma = test system: MALME-3M melanoma
M19-MEL melanoma = test system: M19-MEL melanoma
SR leukemia = test system: SR leukemia
SW-620 colon = test system: SW-620 colon
NCI-H460 lung = test system: NCI-H460 lung
SF-268 CNS = test system: SF-268 CNS
NCI-H23 lung = test system: NCI-H23 lung
OVCAR-3 ovarian = test system: OVCAR-3 ovarian
A498 renal = test system: A498 renal
SNB-78 CNS = test system: SNB-78 CNS
KM20L2 colon = test system: KM20L2 colon
HL-60(TB) leukemia = test system: HL-60(TB) leukemia
KM12 colon = test system: KM12 colon
SK-MEL-28 melanoma = test system: SK-MEL-28 melanoma
786-0 renal = test system: 786-0 renal
HOP-62 NSCLC = test system: HOP-62 NSCLC
COLO 205 colon = test system: COLO 205 colon
UACC-62 melanoma = test system: UACC-62 melanoma
TK-10 renal = test system: TK-10 renal
SK-MEL-2 melanoma = test system: SK-MEL-2 melanoma
RPMI-8226 leukemia = test system: RPMI-8226 leukemia
OVCAR-5 ovarian = test system: OVCAR-5 ovarian
DMS 273 small cell lung = test system: DMS 273 small cell lung
HCT-15 colon = test system: HCT-15 colon

## Cc1c(C(=N)N)oc2ccccc12
DMS 114 small cell lung
  TGI: > 100 µM
UACC-257 melanoma
  TGI: > 100 µM
ACHN renal
  TGI: > 100 µM
CCRF-CEM leukemia
  TGI: > 100 µM
UO-31 renal
  TGI: > 100 µM
A549 NSCLC
  TGI: > 100 µM
IGROV1 ovarian
  TGI: > 100 µM
HCC-2998 colon
  TGI: > 100 µM
LOX IMVI melanoma
  TGI: > 100 µM
HT29 colon
  TGI: > 100 µM
MOLT-4 leukemia
  TGI: > 100 µM
LXFL 529 NSCLC
  TGI: > 100 µM
HOP-92 NSCLC
  TGI: > 100 µM
U251 CNS
  TGI: > 100 µM
NCI-H226 lung
  TGI: > 100 µM
K-562 leukemia
  TGI: > 100 µM
NCI-H522 lung
  TGI: > 100 µM
DLD-1 colon
  TGI: > 100 µM
M14 melanoma
  TGI: > 100 µM
SK-MEL-5 melanoma
  TGI: > 100 µM
HCT-116 colon
  TGI: > 100 µM
SNB-19 CNS
  TGI: > 100 µM
XF 498 CNS
  TGI: > 100 µM
OVCAR-8 ovarian
  TGI: > 100 µM
SK-OV-3 ovarian
  TGI: > 100 µM
CAKI-1 renal
  TGI: > 100 µM
SNB-75 CNS
  TGI: > 100 µM
RXF 393 renal
  TGI: > 100 µM
SN12C renal
  TGI: > 100 µM
HOP-18 NSCLC
  TGI: > 100 µM
EKVX NSCLC
  TGI: > 100 µM
OVCAR-4 ovarian
  TGI: > 100 µM
SF-539 CNS
  TGI: > 100 µM
SF-295 CNS
  TGI: > 100 µM
MALME-3M melanoma
  TGI: > 100 µM
M19-MEL melanoma
  TGI: > 100 µM
SR leukemia
  TGI: > 100 µM
SW-620 colon
  TGI: > 100 µM
NCI-H460 lung
  TGI: > 100 µM
SF-268 CNS
  TGI: > 100 µM
NCI-H23 lung
  TGI: > 100 µM
OVCAR-3 ovarian
  TGI: > 100 µM
A498 renal
  TGI: > 100 µM
SNB-78 CNS
  TGI: > 100 µM
KM20L2 colon
  TGI: > 100 µM
HL-60(TB) leukemia
  TGI: > 100 µM
KM12 colon
  TGI: > 100 µM
SK-MEL-28 melanoma
  TGI: > 100 µM
786-0 renal
  TGI: > 100 µM
HOP-62 NSCLC
  TGI: > 100 µM
COLO 205 colon
  TGI: > 100 µM
UACC-62 melanoma
  TGI: > 100 µM
TK-10 renal
  TGI: > 100 µM

## Cc1ccc(C2C(Cl)C(=O)N2n2cnc3ccccc3c2=O)cc1 (configuration not stated)
DMS 114 small cell lung
  TGI: > 100 µM
UACC-257 melanoma
  TGI: > 100 µM
ACHN renal
  TGI: > 100 µM
CCRF-CEM leukemia
  TGI: > 100 µM
UO-31 renal
  TGI: 90.4 µM
A549 NSCLC
  TGI: > 100 µM
IGROV1 ovarian
  TGI: > 100 µM
HCC-2998 colon
  TGI: > 100 µM
LOX IMVI melanoma
  TGI: > 100 µM
HT29 colon
  TGI: > 100 µM
SK-MEL-2 melanoma
  TGI: > 100 µM
RPMI-8226 leukemia
  TGI: > 100 µM
MOLT-4 leukemia
  TGI: > 100 µM
LXFL 529 NSCLC
  TGI: > 100 µM
U251 CNS
  TGI: > 100 µM
NCI-H226 lung
  TGI: > 100 µM
K-562 leukemia
  TGI: > 100 µM
NCI-H522 lung
  TGI: > 100 µM
DLD-1 colon
  TGI: > 100 µM
M14 melanoma
  TGI: > 100 µM
SK-MEL-5 melanoma
  TGI: > 100 µM
HCT-116 colon
  TGI: > 100 µM
SNB-19 CNS
  TGI: > 100 µM
XF 498 CNS
  TGI: > 100 µM
OVCAR-8 ovarian
  TGI: > 100 µM
SK-OV-3 ovarian
  TGI: > 100 µM
CAKI-1 renal
  TGI: > 100 µM
SNB-75 CNS
  TGI: > 100 µM
RXF 393 renal
  TGI: > 100 µM
SN12C renal
  TGI: > 100 µM
OVCAR-5 ovarian
  TGI: > 100 µM
HOP-18 NSCLC
  TGI: > 100 µM
EKVX NSCLC
  TGI: > 100 µM
OVCAR-4 ovarian
  TGI: > 100 µM
DMS 273 small cell lung
  TGI: > 100 µM
SF-295 CNS
  TGI: > 100 µM
MALME-3M melanoma
  TGI: > 100 µM
M19-MEL melanoma
  TGI: > 100 µM
SR leukemia
  TGI: > 100 µM
SW-620 colon
  TGI: > 100 µM
NCI-H460 lung
  TGI: > 100 µM
SF-268 CNS
  TGI: > 100 µM
HCT-15 colon
  TGI: > 100 µM
NCI-H23 lung
  TGI: > 100 µM
OVCAR-3 ovarian
  TGI: > 100 µM
SNB-78 CNS
  TGI: > 100 µM
KM20L2 colon
  TGI: > 100 µM
HL-60(TB) leukemia
  TGI: > 100 µM
KM12 colon
  TGI: > 100 µM
SK-MEL-28 melanoma
  TGI: > 100 µM
786-0 renal
  TGI: > 100 µM
HOP-62 NSCLC
  TGI: > 100 µM
COLO 205 colon
  TGI: > 100 µM
UACC-62 melanoma
  TGI: > 100 µM
TK-10 renal
  TGI: > 100 µM

## COc1cc(C2c3cc4c(cc3[C@@H](NCCCN3CCCC3=O)C3COC(=O)[C@H]23)OCO4)cc(OC)c1O (some centres not stated)
DMS 114 small cell lung
  GI50: 2.89 µM and 0.701 µM
  TGI: 9.46 µM and > 17.5 µM
ACHN renal
  TGI: 16.5 µM
CCRF-CEM leukemia
  TGI: > 100 µM
UO-31 renal
  TGI: 43.7 µM and > 17.5 µM
A549 NSCLC
  GI50: 6.23 µM and 1.01 µM
  TGI: 40 µM and > 17.5 µM
IGROV1 ovarian
  TGI: > 100 µM
HCC-2998 colon
  TGI: 85.7 µM
LOX IMVI melanoma
  GI50: 8.13 µM and 0.813 µM
  TGI: 33.7 µM and > 17.5 µM
HT29 colon
  TGI: > 100 µM
SK-MEL-2 melanoma
  TGI: > 100 µM
RPMI-8226 leukemia
  TGI: > 100 µM
MOLT-4 leukemia
  TGI: > 100 µM
LXFL 529 NSCLC
  TGI: > 100 µM
HOP-92 NSCLC
  TGI: 71.1 µM and > 17.5 µM
U251 CNS
  TGI: 63 µM and > 17.5 µM
NCI-H226 lung
  GI50: 3.38 µM and 1.35 µM
  TGI: 23 µM and 9.53 µM
K-562 leukemia
  TGI: > 100 µM
NCI-H522 lung
  GI50: 5.65 µM
  TGI: 84.3 µM
DLD-1 colon
  TGI: > 100 µM
M14 melanoma
  TGI: > 100 µM
SK-MEL-5 melanoma
  GI50: 4.21 µM and 0.526 µM
  TGI: 33.5 µM and > 17.5 µM
HCT-116 colon
  TGI: > 100 µM
SNB-19 CNS
  GI50: 38 µM and > 17.5 µM
  TGI: > 100 µM
XF 498 CNS
  TGI: > 100 µM
OVCAR-8 ovarian
  TGI: > 100 µM
SK-OV-3 ovarian
  TGI: 39.4 µM
CAKI-1 renal
  TGI: > 100 µM
SNB-75 CNS
  TGI: 6.81 µM
RXF 393 renal
  TGI: > 100 µM
SN12C renal
  TGI: 80.9 µM and > 17.5 µM
HOP-18 NSCLC
  TGI: > 100 µM
EKVX NSCLC
  TGI: > 100 µM
OVCAR-4 ovarian
  GI50: > 100 µM
  TGI: > 100 µM
SF-539 CNS
  GI50: 3.65 µM
  TGI: 21.4 µM
DMS 273 small cell lung
  GI50: 3.59 µM and 0.476 µM
  TGI: 21.3 µM and > 17.5 µM
SF-295 CNS
  TGI: > 100 µM
MALME-3M melanoma
  GI50: 11 µM
  TGI: > 100 µM
M19-MEL melanoma
  TGI: > 100 µM
SR leukemia
  TGI: > 100 µM
SW-620 colon
  TGI: > 100 µM
NCI-H460 lung
  GI50: 1.54 µM and 0.58 µM
  TGI: 15.7 µM and > 17.5 µM
SF-268 CNS
  GI50: 9.24 µM and 1.58 µM
  TGI: > 100 µM
HCT-15 colon
  TGI: > 100 µM
NCI-H23 lung
  GI50: 5.27 µM
  TGI: 32.2 µM
OVCAR-3 ovarian
  TGI: > 100 µM
KM20L2 colon
  TGI: > 100 µM
KM12 colon
  TGI: > 100 µM
SK-MEL-28 melanoma
  TGI: > 100 µM
786-0 renal
  TGI: 60.4 µM and > 17.5 µM
HOP-62 NSCLC
  GI50: 5.45 µM and 0.712 µM
  TGI: 34.3 µM and > 17.5 µM
COLO 205 colon
  TGI: > 100 µM
UACC-62 melanoma
  GI50: 4.03 µM and 0.677 µM
  TGI: 26 µM and > 17.5 µM
TK-10 renal
  TGI: > 100 µM
